What was measured:
[1] = test system: Chikungunya virus; assay: Antiviral activity against Chikungunya virus Indian Ocean strain 899 infected in African green monkey Vero cells assessed as inhibition of viral-induced cytopathic effect measured on day 5 post infection by MTS/PMS assay; assay type: functional, organism-based, Indian Ocean 899; details: for EC50 / EC90: Chikungunya virus, Indian Ocean 899, Vero, 120 h
[2] = test system: Chikungunya virus; assay: Antiviral activity against Chikungunya virus Indian Ocean strain 899 infected in African green monkey Vero cells assessed as inhibition of viral-induced cytopathic effect by measuring concentration required for maximum activity measured on day 5 post infection by MTS/PMS assay; assay type: functional, Indian Ocean 899

| Structure (SMILES) | Imax [1] [%] | EC50 [1] [µM] | EC90 [1] [µM] | Activity [2] [µM] |
| --- | --- | --- | --- | --- |
| Cc1ccc(-c2nnc(/C=C/c3ccc(C(C)(C)C)cc3)o2)cc1 | 8 | > 157 | > 157 | 157 |
| Cc1ccc(-c2nnc(CCc3ccc(C(C)(C)C)cc3)o2)cc1 | 100 | 17.2 | 21.7 | 26 |
| CC(C)(C)c1ccc(CCC(=O)Nc2nc3ccccc3[nH]2)cc1 | 41 | > 311 | > 311 | 311 |
| Cc1ccc(CNC(=O)N/C=C/c2ccc(C(C)(C)C)cc2)cc1 | 10 | > 103 | > 103 | 103 |
| C/C(=N\NC(=O)c1ccc2ccccc2c1)c1ccc(C2CCCCC2)cc1 | 14 | > 270 | > 270 | 270 |
| CCN(CC)CCCC(C)Nc1ccnc2cc(Cl)ccc12 (configuration not stated) [CHLOROQUINE] | – | – | 21 | – |
| CCOc1ccc(/C=N/NC(=O)/C=C/c2ccc(C(C)C)cc2)cc1OCC | 30 | > 29.2 | > 29.2 | 8 |
| Cc1ccc(/C=N/NC(=O)c2nc3ccccc3[nH]2)cc1 | 14 | > 120 | > 120 | 120 |
| COc1ccc(CNC(=O)N/C=C/c2ccc(C(C)(C)C)cc2)cc1OC | 100 | 11.6 | 14.8 | 17 |
| CC(C)(C)c1ccc(/C=C/NC(=O)Nc2ccc(O)cc2)cc1 | 100 | 9.1 | 11.9 | 4.1 |
| Cc1ccc2[nH]c(NC(=O)CCc3ccc(C(C)(C)C)cc3)nc2c1 | 8 | > 298 | > 298 | 1.6 |
| CCOc1ccc(/C=N/NC(=O)/C=C/c2ccc(OC)cc2)cc1OCC | 8 | > 271 | > 271 | 45 |
| C/C(=N\NC(=O)/C=C/c1ccc(-c2ccccc2)cc1)c1ccc(C2CCCCC2)cc1 | 15 | > 29.6 | > 29.6 | 30 |
| CCOc1ccc(/C=N/NC(=O)c2cnc3ccccc3c2)cc1OCC | 3 | > 275 | > 275 | 275 |
| O=C(N/N=C/c1ccc(O)cc1)c1ccc2ccccc2c1 | 2 | > 344 | > 344 | 344 |
| Cc1ccc(/C=N/NC(=O)c2ccc3ccccc3c2)cc1 | 10 | > 347 | > 347 | 347 |
| CCOc1ccc(/C=N/NC(=O)c2cc3ccccc3[nH]2)cc1OCC | 50 | > 213 | > 213 | 213 |
| C/C(=N\NC(=O)c1ccc2ccccc2n1)c1ccc(C2CCCCC2)cc1 | 13 | > 269 | > 269 | 269 |
| CCOc1ccc(/C=N/NC(=O)/C=C/c2ccc(C(C)(C)C)cc2)cc1OCC | 100 | – | 11 | 12.5 |
| C/C(=N\NC(=O)c1cc2ccccc2[nH]1)c1ccc(C2CCCCC2)cc1 | 41 | > 209 | > 209 | 209 |
| CCOc1ccc(/C=N/NC(=O)c2ccc3ccccc3n2)cc1OCC | 8 | > 275 | > 275 | 275 |
| Cc1ccc(-c2nnc(Cc3ccc(C(C)(C)C)cc3)o2)cc1 | 100 | 17.9 | 22.7 | 27.2 |

| Structure (SMILES) | Imax [1] [%] | EC50 [1] [µM] | EC90 [1] [µM] | Activity [2] [µM] |
| --- | --- | --- | --- | --- |
| O=C(N/C=C/c1ccccc1)Nc1ccc(O)cc1 | 2 | > 393 | > 393 | 197 |
| CCOc1ccc(-c2nnc(Cc3ccc(C(C)(C)C)cc3)o2)cc1OCC | 15 | 39.7 | – | 131.4 |
| CCOc1ccc(/C=N/NC(=O)c2nc3ccccc3[nH]2)cc1OCC | 6 | > 284 | > 284 | 284 |
| O=C(N/N=C/c1ccc(O)cc1)c1nc2ccccc2[nH]1 | 33 | > 357 | > 357 | 357 |
| CC(C)(C)c1ccc(/C=C/C(=O)Nc2nc3ccccc3[nH]2)cc1 | 38 | > 157 | > 157 | 157 |
| Cc1ccc(/C=N/NC(=O)c2ccc3ccccc3n2)cc1 | 3 | > 346 | > 346 | 346 |
| CCOc1ccc(/C=N/NC(=O)/C=C/c2ccc(-c3ccccc3)cc2)cc1OCC | 47 | > 80.2 | > 80.2 | 120 |
| CCOc1ccc(/C=N/NC(=O)c2ccc3ccccc3c2)cc1OCC | 24 | > 276 | > 276 | 276 |
| Cc1ccc(C(=O)NNC(=O)/C=C/c2ccc(C(C)(C)C)cc2)cc1 | 9 | > 99.1 | > 99.1 | 99.1 |
| C/C(=N\NC(=O)/C=C/c1ccc(C(C)C)cc1)c1ccc(C2CCCCC2)cc1 | 13 | > 193 | > 193 | 193 |
| CCOc1ccc(-c2nnc(/C=C/c3ccc(C(C)(C)C)cc3)o2)cc1OCC | 100 | 29 | 88.2 | 127.4 |
| COc1ccc(CNC(=O)N/C=C/c2ccccc2)cc1OC | 13 | > 320 | > 320 | 320 |
| Cc1ccc(NC(=O)N/C=C/c2ccc(C(C)(C)C)cc2)cc1 | 16 | > 61 | > 61 | 61 |
| CCOc1ccc(C(=O)NNC(=O)/C=C/c2ccc(C(C)(C)C)cc2)cc1OCC | 11 | > 244 | > 244 | 6.3 |
| COc1ccc(/C=C/C(=O)N/N=C(\C)c2ccc(C3CCCCC3)cc2)cc1 | 9 | > 87.7 | > 87.7 | 66 |
| C/C(=N\NC(=O)c1cnc2ccccc2c1)c1ccc(C2CCCCC2)cc1 | 19 | > 202 | > 202 | 202 |
| Cc1ccc(/C=N/NC(=O)c2cnc3ccccc3c2)cc1 | 27 | > 346 | > 346 | 346 |
| O=C(N/N=C/c1ccc(O)cc1)c1ccc2ccccc2n1 | <1 | > 343 | > 343 | 343 |
| CC(C)(C)c1ccc(/C=C/NC(=O)NCc2ccccc2)cc1 | 8 | > 107 | > 107 | 107 |
| CCOc1ccc(-c2nnc(CCc3ccccc3)o2)cc1OCC | 4 | > 98.4 | > 98.4 | 73.9 |
| Cc1ccc(CNC(=O)N/C=C/c2ccccc2)cc1 | 18 | > 376 | > 376 | 376 |
